Measured values: PubChem BioAssay (NCI)
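A five-concentration, 48-hour dose response in 96-well plates underlies each endpoint, interpolated linearly between surrounding concentrations. GI50 = concentration required for 50% inhibition of growth. The concentration for full growth arrest is given as TGI.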

Legend:
Experiment in all cases: NCI anticancer screen, dose series, 48 h
[1] = system: 786-0 renal
[2] = system: A498 renal
[3] = system: A549 NSCLC
[4] = system: ACHN renal
[5] = system: BT-549 breast
[6] = system: CAKI-1 renal
[7] = system: CCRF-CEM leukemia
[8] = system: COLO 205 colon
[9] = system: DU-145 prostate
[10] = system: EKVX NSCLC
[11] = system: HCC-2998 colon
[12] = system: HCT-116 colon
[13] = system: HCT-15 colon
[14] = system: HL-60(TB) leukemia
[15] = system: HOP-62 NSCLC
[16] = system: HOP-92 NSCLC
[17] = system: HS 578T breast
[18] = system: HT29 colon
[19] = system: IGROV1 ovarian
[20] = system: K-562 leukemia
[21] = system: KM12 colon
[22] = system: LOX IMVI melanoma
[23] = system: M14 melanoma
[24] = system: MALME-3M melanoma
[25] = system: MCF7 breast
[26] = system: MDA-MB-231 breast
[27] = system: MDA-MB-435
[28] = system: NCI-H226 lung
[29] = system: NCI-H23 lung
[30] = system: NCI-H460 lung
[31] = system: NCI-H522 lung
[32] = system: NCI/ADR-RES ovarian
[33] = system: OVCAR-3 ovarian
[34] = system: OVCAR-4 ovarian
[35] = system: OVCAR-5 ovarian
[36] = system: OVCAR-8 ovarian
[37] = system: PC-3 prostate
[38] = system: RPMI-8226 leukemia
[39] = system: RXF 393 renal
[40] = system: SF-268 CNS
[41] = system: SF-295 CNS
[42] = system: SF-539 CNS
[43] = system: SK-MEL-2 melanoma
[44] = system: SK-MEL-28 melanoma
[45] = system: SK-MEL-5 melanoma
[46] = system: SK-OV-3 ovarian
[47] = system: SN12C renal
[48] = system: SNB-19 CNS
[49] = system: SNB-75 CNS
[50] = system: SR leukemia
[51] = system: SW-620 colon
[52] = system: T-47D breast
[53] = system: TK-10 renal
[54] = system: U251 CNS
[55] = system: UACC-257 melanoma
[56] = system: UACC-62 melanoma
[57] = system: UO-31 renal

SMILES: Cc1ccnc2c1ccc1c(C)ccnc12
- GI50 [1]: 327 nM
- TGI [1]: 10900 nM
- GI50 [2]: 327 nM
- TGI [2]: 3710 nM
- GI50 [3]: 386 nM
- TGI [3]: 11400 nM
- GI50 [4]: 357 nM
- TGI [4]: 10500 nM
- GI50 [5]: 521 nM
- TGI [5]: 14300 nM
- GI50 [6]: 209 nM
- TGI [6]: 10000 nM
- GI50 [7]: 361 nM
- TGI [7]: 3000 nM
- GI50 [8]: 568 nM
- TGI [8]: 13000 nM
- GI50 [9]: 501 nM
- TGI [9]: 14200 nM
- GI50 [10]: 389 nM
- TGI [10]: 12700 nM
- GI50 [11]: 381 nM
- TGI [11]: 15100 nM
- GI50 [12]: 418 nM
- TGI [12]: 13000 nM
- GI50 [13]: 383 nM
- TGI [13]: 10400 nM
- GI50 [14]: 328 nM
- TGI [14]: 2390 nM
- GI50 [15]: 508 nM
- TGI [15]: 12600 nM
- GI50 [16]: 656 nM
- TGI [16]: 16100 nM
- GI50 [17]: 3950 nM
- TGI [17]: > 100000 nM
- GI50 [18]: 491 nM
- TGI [18]: 12600 nM
- GI50 [19]: 471 nM
- TGI [19]: 13600 nM
- GI50 [20]: 395 nM
- TGI [20]: 25900 nM
- GI50 [21]: 504 nM
- TGI [21]: 12000 nM
- GI50 [22]: 367 nM
- TGI [22]: 4660 nM
- GI50 [23]: 294 nM
- TGI [23]: 10200 nM
- GI50 [24]: 364 nM
- TGI [24]: 5270 nM
- GI50 [25]: 343 nM
- TGI [25]: 12400 nM
- GI50 [26]: 673 nM
- TGI [26]: 21300 nM
- GI50 [27]: 481 nM
- TGI [27]: 13100 nM
- GI50 [28]: 412 nM
- TGI [28]: 8210 nM
- GI50 [29]: 741 nM
- TGI [29]: 20200 nM
- GI50 [30]: 339 nM
- TGI [30]: 11300 nM
- GI50 [31]: 608 nM
- TGI [31]: 4970 nM
- GI50 [32]: 204 nM
- TGI [32]: 1790 nM
- GI50 [33]: 526 nM
- TGI [33]: 11400 nM
- GI50 [34]: 316 nM
- TGI [34]: 4230 nM
- GI50 [35]: 750 nM
- TGI [35]: 19000 nM
- GI50 [36]: 397 nM
- TGI [36]: 14100 nM
- GI50 [37]: 430 nM
- TGI [37]: 15500 nM
- GI50 [38]: 468 nM
- TGI [38]: 14300 nM
- GI50 [39]: 729 nM
- TGI [39]: 15100 nM
- GI50 [40]: 454 nM
- TGI [40]: 14600 nM
- GI50 [41]: 371 nM
- TGI [41]: 11700 nM
- GI50 [42]: 316 nM
- TGI [42]: 5060 nM
- GI50 [43]: 504 nM
- TGI [43]: 18300 nM
- GI50 [44]: 491 nM
- TGI [44]: 14200 nM
- GI50 [45]: 303 nM
- TGI [45]: 11800 nM
- GI50 [46]: 526 nM
- TGI [46]: 9610 nM
- GI50 [47]: 441 nM
- TGI [47]: 13100 nM
- GI50 [48]: 592 nM
- TGI [48]: 13900 nM
- GI50 [49]: 840 nM
- TGI [49]: 14600 nM
- GI50 [50]: 382 nM
- TGI [50]: > 100000 nM
- GI50 [51]: 429 nM
- TGI [51]: 15900 nM
- GI50 [52]: 883 nM
- TGI [52]: 12600 nM
- GI50 [53]: 588 nM
- TGI [53]: 14600 nM
- GI50 [54]: 419 nM
- TGI [54]: 11500 nM
- GI50 [55]: 508 nM
- TGI [55]: 7600 nM
- GI50 [56]: 288 nM
- TGI [56]: 1030 nM
- GI50 [57]: 246 nM
- TGI [57]: 2910 nM
